Laboratory results published in patent US8507539B2, “Potassium channel blockers and uses thereof” (Bionomics Limited, priority 2008, dated 2013).
Like-named read-outs stand apart in the source and are kept apart here.

Key:
Type in all cases: cell-based
hKv1.3 = hKv1.3 (Homo sapiens, UniProt P22001); experiment: Whole-cell patch-clamp block of Kv1.3 current in CHO cells stably expressing hKv1.3
Experimental: (§1) The effectiveness of the generated compounds in blocking the Kv1.3 current was assayed on CHO cells stably expressing hKv1.3. Cells were grown in F12 Kaighns' medium supplemented with 10% fetal calf serum, 2 mM L-glutamine, 1 mM Na^+ pyruvate, 100 units/ml penicillin, 100 Fg/ml streptomycin and 500 μg/ml G418 (to keep them under selection pressure). Kv1.3 currents were measured using the whole-cell configuration of the patch-clamp technique and were evoked by 500 ms depolarising voltage pulses to +40 mV from a holding potential of −80 mV at 30 sec intervals. Cells were continuously bathed in Ringers solution containing (mM): 160 NaCl, 4.5 KCl, 2.5 CaCl2, 1 MgCl2, 10 HEPES, pH 7.4, 290-310 mOsm. The internal (pipette) solution contained (mM): 134 KF, 2 MgCl2, 10 HEPES, 10 EGTA (pH 7.2, 290-310 mOsm). Series resistance compensation (60-80%) was applied when the peak current amplitude exceeded 2 nA. Compounds initially dissolved in DMSO were diluted in bath solution (final DMSO concentration 0.5%) and applied directly to the recording chamber at increasing concentrations allowing ample time for steady state block to be achieved between each concentration. Each compound was tested at 4-5 different concentrations in triplicate. IC50 values were determined by fitting the average normalised reduction of the current integral to the Hill equation.

hKv1.1 = target: T1, hKv1.1 (Homo sapiens, UniProt Q09470); experiment: Whole-cell patch-clamp inhibition of Kv1.1 currents in CHO cells stably transfected with hKv1.1; conditions: from IC50 values, CHO-hKv1.1 vs CHO-hKv1.3
T1 construct: expressed in transfected cells
T1 sequence (Q09470 whole entry): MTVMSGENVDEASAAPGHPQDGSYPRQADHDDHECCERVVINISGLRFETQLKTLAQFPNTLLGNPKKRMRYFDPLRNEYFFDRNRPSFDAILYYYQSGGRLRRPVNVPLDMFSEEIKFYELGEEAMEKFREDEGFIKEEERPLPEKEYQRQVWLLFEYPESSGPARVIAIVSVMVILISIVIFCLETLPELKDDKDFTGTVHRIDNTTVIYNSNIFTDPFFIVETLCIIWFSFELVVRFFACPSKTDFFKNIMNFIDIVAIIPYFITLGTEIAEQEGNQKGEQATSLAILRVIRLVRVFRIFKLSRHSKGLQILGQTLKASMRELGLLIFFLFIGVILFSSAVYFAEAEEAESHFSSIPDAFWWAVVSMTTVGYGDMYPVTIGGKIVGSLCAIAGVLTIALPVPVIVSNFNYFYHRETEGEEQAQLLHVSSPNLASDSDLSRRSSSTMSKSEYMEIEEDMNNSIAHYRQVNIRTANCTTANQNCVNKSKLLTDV
Experimental: as §1
(§2) IC50 values for inhibition of Kv1.3 currents were determined as described above. IC50 values for inhibition of Kv1.1 and Kv1.5 currents were determined by the method above using Chinese Hamster Ovary (CHO) cells stably transfected with hKv1.1 and hKv1.5.

hKv1.5 = target: T2, hKv1.5 (Homo sapiens, UniProt P22460); experiment: Whole-cell patch-clamp inhibition of Kv1.5 currents in CHO cells stably transfected with hKv1.5; conditions: from IC50 values, CHO-hKv1.5 vs CHO-hKv1.3
T2 construct: expressed in transfected cells
T2 sequence (P22460 whole entry): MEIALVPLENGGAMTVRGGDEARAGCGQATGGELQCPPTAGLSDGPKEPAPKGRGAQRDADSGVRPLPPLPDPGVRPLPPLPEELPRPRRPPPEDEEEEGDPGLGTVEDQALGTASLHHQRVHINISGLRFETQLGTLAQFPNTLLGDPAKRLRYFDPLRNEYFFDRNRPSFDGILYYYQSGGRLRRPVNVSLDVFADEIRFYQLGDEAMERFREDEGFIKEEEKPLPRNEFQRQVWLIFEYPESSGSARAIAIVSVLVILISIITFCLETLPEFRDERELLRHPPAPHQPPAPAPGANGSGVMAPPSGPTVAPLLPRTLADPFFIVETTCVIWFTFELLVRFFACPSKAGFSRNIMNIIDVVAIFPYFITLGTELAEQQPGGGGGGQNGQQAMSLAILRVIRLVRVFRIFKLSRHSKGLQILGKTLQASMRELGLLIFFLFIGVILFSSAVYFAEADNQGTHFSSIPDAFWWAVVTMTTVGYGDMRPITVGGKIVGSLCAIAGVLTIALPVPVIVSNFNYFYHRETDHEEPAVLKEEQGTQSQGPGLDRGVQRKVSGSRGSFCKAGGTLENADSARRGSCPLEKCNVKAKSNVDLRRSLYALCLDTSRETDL
Experimental: as §1, §2

[1] = CHO cells stably expressing hKv1.3, whole-cell patch clamp, reported as ranges, read-out: IC50 (Kv1.3)
[2] = IC50 for inhibition of Kv1.3 currents, CHO-hKv1.3, read-out: Potency for Kv1.3

Chain of hKv1.3 (P22001 whole entry): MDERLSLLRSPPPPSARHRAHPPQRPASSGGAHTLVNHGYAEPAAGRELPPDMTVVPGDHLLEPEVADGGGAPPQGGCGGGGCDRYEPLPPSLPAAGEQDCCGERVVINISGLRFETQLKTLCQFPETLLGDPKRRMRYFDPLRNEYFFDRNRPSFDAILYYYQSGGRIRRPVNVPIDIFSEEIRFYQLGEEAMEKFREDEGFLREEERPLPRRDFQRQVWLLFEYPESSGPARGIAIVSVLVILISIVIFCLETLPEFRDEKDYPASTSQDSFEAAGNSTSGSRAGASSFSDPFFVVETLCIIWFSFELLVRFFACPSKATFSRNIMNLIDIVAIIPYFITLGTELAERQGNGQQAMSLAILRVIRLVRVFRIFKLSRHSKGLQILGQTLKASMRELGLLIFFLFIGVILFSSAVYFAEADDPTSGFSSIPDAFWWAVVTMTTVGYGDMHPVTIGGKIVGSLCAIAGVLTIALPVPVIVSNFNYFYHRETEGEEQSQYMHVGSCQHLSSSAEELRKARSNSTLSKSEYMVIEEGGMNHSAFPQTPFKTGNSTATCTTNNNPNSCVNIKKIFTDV

Structure (SMILES) | IC50 (hKv1.3; [1]) | IC50 (hKv1.3; [2]) | Selectivity for Kv1.3 over Kv1.1 (hKv1.1) | Selectivity for Kv1.3 over Kv1.5 (hKv1.5)
CC(=O)c1c(OCCN2CCCCC2)c(OCCC(C)c2ccc(F)cc2)c2oc(C)nc2c1C (centres unmarked) [Example 42, 5-Acetyl-7-[3-(4-fluorophenyl)butoxy]-6-[2-(piperidin-1-yl)-ethoxy]-2,4-dimethyl-benzooxazole] | < 0.05 µM | < 0.05 µM | 25 fold | 24 fold
CC(=O)c1c(OCCN2CCCC(F)(F)C2)c(OCCC(C)c2ccc(F)cc2)c2oc(C(F)F)nc2c1C (centres unmarked) [Example 31b, 5-Acetyl-7-[3-(4-fluorophenyl)butoxy]-6-(2-(3,3-difluoropiperidin-1-yl)-ethoxy)-4-methyl-2-difluoromethyl-benzo[d]oxazole] | < 0.05 µM | < 0.05 µM | 21 fold | 29 fold
CC(=O)c1c(OCCN2CCOCC2)c(OCCC(C)c2ccc(F)cc2)c2oc(C3CC3)nc2c1C (centres unmarked) [Example 35d, 5-Acetyl-7-[3-(4-fluorophenyl)butoxy]-2-cyclopropyl-4-methyl-6-(2-morpholin-4-yl-ethoxy)-benzo[d]oxazole] | 0.05 to 0.2 µM |  |  | 
Cc1nc2c(C)c(C(C)O)c(OCCN3CCSCC3)c(OCCC(C)c3ccc(F)cc3)c2o1 (centres unmarked) [Example 27, 4-(1-Hydroxyethyl)-7-[3-(4-fluorophenyl)butoxy]-2,4-dimethyl-6-(2-thiomorpholin-4-ylethoxy)-benzo[d]oxazole] | < 0.05 µM |  |  | 
CC(=O)c1c(OCCN2CCCC(F)(F)C2)c(OCCC(C)c2ccc(F)cc2)c2oc(C(C)C)nc2c1C (centres unmarked) [Example 33b, 5-Acetyl-6-[2-(3,3-difluoropiperidin-1-yl)ethoxy]-7-[3-(4-fluorophenyl)butoxy]-2-isopropyl-4-methylbenzo[d]oxazole] | 0.05 to 0.2 µM |  |  | 
CC(=O)c1c(OCCN)c(OCCC(C)c2ccc(F)cc2)c2oc(C)nc2c1C (centres unmarked) [Example 22, 5-Acetyl-6-(2-aminiumethoxy)-7-[3-(4-fluorophenyl)butoxy]-2,4-dimethyl-benzo[d]oxazole chloride] | 0.2 to 1 µM |  |  | 
CC(=O)c1c(OCCN2CCOCC2)c(OCCC(C)c2ccc(F)cc2)c2oc(C)nc2c1C (centres unmarked) [Example 6c, 5-Acetyl-7-[3-(4-fluorophenyl)butoxy]-2,4-dimethyl-6-(2-morpholin-4-yl-ethoxy)-benzooxazole] | < 0.05 µM |  |  | 
CC(=O)c1c(OCCN2CCOCC2)c(OCCC(C)c2ccc(F)cc2)c2oc(C(F)F)nc2c1C (centres unmarked) [Example 30c, 5-Acetyl-7-[3-(4-fluorophenyl)butoxy]-6-(2-morphin-4-yl-ethoxy)-4-methyl-2-difluoromethyl-benzo[d]oxazole] | 0.05 to 0.2 µM |  |  | 
CC(=O)c1c(OC2CN(C3CCCC3)C2)c(OCCC(C)c2ccc(F)cc2)c2oc(C)nc2c1C (centres unmarked) [Example 41b] | 0.05 to 0.2 µM |  |  | 
CC(=O)c1c(OCCN2CCOCC2)c(OCCCc2ccccc2)c2ocnc2c1C [Example 1i, 5-Acetyl-4-methyl-6-(2-morpholinoethoxy)-7-(3-phenylpropoxy)-benzo[d]oxazole] | 0.05 to 0.2 µM |  |  | 
CC(=O)c1c(OCCn2nnnc2N)c(OCCC(C)c2ccc(F)cc2)c2oc(C)nc2c1C (centres unmarked) [Example 11b, 5-Acetyl-6-[2-(5-amino-tetrazol-1-yl)-ethoxy]-7-[3-(4-fluorophenyl)butoxy]-2,4-dimethyl-benzooxazole] | 0.05 to 0.2 µM |  |  | 
CC(=O)c1c(OCCN2CCSCC2)c(OCCC(C)c2ccc(F)cc2)c2oc(C)nc2c1C (centres unmarked) [Example 13] | < 0.05 µM | < 0.05 µM | 15 fold | 11 fold
CC(=O)c1c(OCCn2ccnc2C)c(OCCC(C)c2ccc(F)cc2)c2oc(C(C)C)nc2c1C (centres unmarked) [Example 34, 5-Acetyl-7-[3-(4-fluorophenyl)butoxy]-2-isopropyl-1-4-methyl-6-[2-(2-methyl-1H-imidazol-1-yl)ethoxy]-benzo[d]oxazole] | 0.2 to 1 µM |  |  | 
CC(=O)c1c(OCCN2CCOCC2)c(OCCCc2ccccc2)c2oc(C)nc2c1Cl [Example 37j] | 0.2 to 1 µM |  |  | 
CC(=O)c1c(OCCc2ccccn2)c(OCCC(C)c2ccc(F)cc2)c2ocnc2c1C (centres unmarked) [Example 3, 5-Acetyl-7-[3-(4-fluorophenyl)butoxy]-4-methyl-6-(2-pyridin-2-yl-ethoxy)benzooxazole] | < 0.05 µM |  |  | 
CC(=O)c1c(OCCn2nnc(N)n2)c(OCCC(C)c2ccc(F)cc2)c2oc(C)nc2c1C (centres unmarked) [Example 11a, 5-Acetyl-6-[2-(5-aminotetrazol-2-yl)-ethoxy]-7-[3-(4-fluorophenyl)butoxy]-2,4-dimethyl-benzooxazole] | < 0.05 µM |  |  | 
CC(=O)c1c(OCCc2ccccn2)c(OCCC(C)c2ccc(F)cc2)c2oc(C(F)(F)F)nc2c1C (centres unmarked) [Example 29, 5-Acetyl-7-[3-(4-fluorophenyl)butoxy]-4-methyl-6-(2-pyridin-2-yl-ethoxy)-2-trifluoromethyl-benzo[d]oxazole] | 0.05 to 0.2 µM |  |  | 
CC(=O)c1c(OCCN(C)C)c(OCCC(C)c2ccc(F)cc2)c2ocnc2c1C (centres unmarked) [Example 4b, 5-Acetyl-7-[3-(4-fluorophenyl)butoxy]-4-methyl-6-(2-N,N-dimethylamino-ethoxy)benzooxazole] | 0.2 to 1 µM |  |  | 
CC(=O)c1c(OCCN(C)C)c(OCCC(C)c2ccc(F)cc2)c2oc(C)nc2c1C (centres unmarked) [Example 7, 5-Acetyl-6-(2-dimethylaminoethoxy)-7-[3-(4-fluorophenyl)butoxy]-2,4-dimethyl-benzooxazole] | 0.2 to 1 µM |  |  | 
CC(=O)c1c(OCCNC2CCCCC2)c(OCCC(C)c2ccc(F)cc2)c2oc(C)nc2c1C (centres unmarked) [Example 18, 5-Acetyl-6-(2-cyclohexylamino-ethoxy)-7-[3-(4-fluorophenyl)butoxy]-2,4-dimethyl-benzooxazole] | < 0.05 µM | < 0.05 µM | 11 fold | 12 fold
CC(=O)c1c(OCCN=C(N(C)C)N(C)C)c(OCCC(C)c2ccc(F)cc2)c2oc(C)nc2c1C (centres unmarked) [Example 23, 5-Acetyl-6-(2-(N,N,N′,N′-tetramethylguanidinium)ethoxy)-7-[3-(4-fluorophenyl)butoxy]-2,4-dimethyl-benzo[d]oxazole chloride] | 0.2 to 1 µM |  |  | 
CC(=O)c1c(OCCN2CCS(=O)(=O)CC2)c(OCCC(C)c2ccc(F)cc2)c2oc(C)nc2c1C (centres unmarked) [Example 15, 5-Acetyl-6-[2-(1,1-dioxo-thiomorpholin-4-yl)-ethoxy]-7-[3-(4-fluorophenyl)butoxy]-2,4-dimethyl-benzooxazole] | < 0.05 µM |  |  | 
CC(=O)c1c(OCCN2CCOCC2)c(OCCC(C)c2ccc(F)cc2)c2ocnc2c1C (centres unmarked) [Example 2d, 5-Acetyl-7-[3-(4-fluorophenyl)butoxy]-4-methyl-6-(2-morpholin-4-yl-ethoxy)benzooxazole] | < 0.05 µM |  |  | 
CC(=O)c1c(OCCN2CCOCC2)c(OCCC(C)c2ccc(F)cc2)c2oc(C(F)(F)F)nc2c1C (centres unmarked) [Example 28c, 5-Acetyl-7-[3-(4-fluorophenyl)butoxy]-4-methyl-6-(2-morpholin-4-yl-ethoxy)-2-trifluoromethyl-benzooxazole] | 0.05 to 0.2 µM |  |  | 
CC(=O)c1c(OC2CCN(C3CCCC3)CC2)c(OCCC(C)c2ccc(F)cc2)c2oc(C)nc2c1C (centres unmarked) [Example 40c] | 0.05 to 0.2 µM |  |  | 
CC(=O)c1c(OCCN2CCCC(F)(F)C2)c(OCCC(C)c2ccc(F)cc2)c2oc(C)nc2c1Cl (centres unmarked) [Example 39, 5-Acetyl-4-chloro-7-(3-(4-fluorophenyl)butoxy)-6-(2-(3,3-difluoropiperidin-1-yl)ethoxy)-2-methyl-benzo[d]oxazole] | 0.05 to 0.2 µM |  |  | 
